Data reported in patent US6525001B1, “Substituted pyrimidine and pyridine herbicides” (Mid-American Commercialization Corporation, priority 1997, dated 2003).

Tests used:
Assay in all cases: Test B pre-/postemergence
Format in all cases: in vivo
Parameters in all cases: key: 0 is no effect; 10 is complete control
[1] = system: giant foxtail (Setaria faberii)
In short: (§1)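 Compounds in a surfactant-containing, non-phytotoxic solvent blend are applied to freshly planted seed (preemergence) and, concurrently, to seedlings of 2 to 18 cm at 1–4 leaves (postemergence). Plants stay in the greenhouse twelve to sixteen days and are then scored visually from 0 (no effect) to 10 (complete control).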

wild oat (Avena fatua) = system: wild oat (Avena fatua)
In short: as §1

[2] = system: broadleaf signalgrass (Brachiaria decumbens)
In short: as §1

[3] = system: bedstraw (Galium aparine)
In short: as §1

[4] = system: momingglory (Ipomoea hederacea)
In short: as §1

[5] = Preemergence, Rate 62 g/ha, scale of 0 to 10

| Structure (SMILES) | Plant response rating, Giant foxtail [1, 5] | Giant foxtail plant response rating ([1]; Rate 62 g/ha, Postemergence) | Giant foxtail plant response rating ([1]; Rate 125 g/ha, Postemergence) | Plant response rating, Giant foxtail ([1]; Rate 125 g/ha, Preemergence) | Plant response rating, Giant foxtail ([1]; Rate 250 g/ha, Postemergence) | Plant response rating, Giant foxtail ([1]; Rate 250 g/ha, Preemergence) | Plant response rating, Giant foxtail ([1]; Rate 500 g/ha, Preemergence) | Plant response rating, Wild oats (wild oat (Avena fatua); [5]) | Wild oats plant response rating (wild oat (Avena fatua); Rate 62 g/ha, Postemergence) | Wild oats plant response rating (wild oat (Avena fatua); Rate 125 g/ha, Postemergence) | Plant response rating, Wild oats (wild oat (Avena fatua); Rate 125 g/ha, Preemergence) | Plant response rating, Wild oats (wild oat (Avena fatua); Rate 250 g/ha, Postemergence) | Plant response rating, Wild oats (wild oat (Avena fatua); Rate 250 g/ha, Preemergence) | Plant response rating, Wild oats (wild oat (Avena fatua); Rate 500 g/ha, Preemergence) | B. signalgrass plant response rating ([2]; Rate 62 g/ha, Postemergence) | B. signalgrass plant response rating ([2]; Rate 62 g/ha, Preemergence) | B. signalgrass plant response rating ([2]; Rate 125 g/ha, Postemergence) | Plant response rating, B. signalgrass ([2]; Rate 125 g/ha, Preemergence) | Plant response rating, B. signalgrass ([2]; Rate 250 g/ha, Postemergence) | Plant response rating, B. signalgrass ([2]; Rate 250 g/ha, Preemergence) | also measured |
| --- | --- | --- | --- | --- | --- | --- | --- | --- | --- | --- | --- | --- | --- | --- | --- | --- | --- | --- | --- | --- | --- |
| Cc1cnc(-n2ccc(C(F)(F)C(F)(F)F)n2)nc1C(=O)c1cccc(C(F)(F)F)c1 [Compound 68] | 3 | 1 | 2 | 6 | 2 | 9 | 10 | 4 | 2 | 2 | 6 | 2 | 7 | 8 | 2 | 5 | 3 | 8 | 3 | 9 | Plant response rating, Giant foxtail ([1]; Rate 500 g/ha, Postemergence): 3; Plant response rating, Wild oats (wild oat (Avena fatua); Rate 500 g/ha, Postemergence): 3; Plant response rating, B. signalgrass ([2]; Rate 500 g/ha, Postemergence): 5; Plant response rating, B. signalgrass ([2]; Rate 500 g/ha, Preemergence): 10; Plant response rating, Bedstraw [3, 5]: 3; Bedstraw plant response rating ([3]; Rate 62 g/ha, Postemergence): 5; Bedstraw plant response rating ([3]; Rate 125 g/ha, Postemergence): 6; Plant response rating, Bedstraw ([3]; Rate 125 g/ha, Preemergence): 5; Plant response rating, Bedstraw ([3]; Rate 250 g/ha, Postemergence): 9; Plant response rating, Bedstraw ([3]; Rate 250 g/ha, Preemergence): 6; Plant response rating, Bedstraw ([3]; Rate 500 g/ha, Postemergence): 10; Plant response rating, Bedstraw ([3]; Rate 500 g/ha, Preemergence): 6; Plant response rating, Morningglory [4, 5]: 3; Morningglory plant response rating ([4]; Rate 62 g/ha, Postemergence): 2; Morningglory plant response rating ([4]; Rate 125 g/ha, Postemergence): 8; Plant response rating, Morningglory ([4]; Rate 125 g/ha, Preemergence): 3; Plant response rating, Morningglory ([4]; Rate 250 g/ha, Postemergence): 10; Plant response rating, Morningglory ([4]; Rate 250 g/ha, Preemergence): 5; Plant response rating, Morningglory ([4]; Rate 500 g/ha, Postemergence): 10; Plant response rating, Morningglory ([4]; Rate 500 g/ha, Preemergence): 9 |
| Cc1cnc(-c2ccc(C(F)(F)F)cc2)nc1C(=O)c1cccc(OC(F)(F)F)c1 [Compound 75] | 1 | 1 | 2 | 5 | 4 | 5 | 9 | 5 | 3 | 3 | 7 | 3 | 7 | 9 | 2 | 8 | 2 | 9 | 3 | 9 | Plant response rating, B. signalgrass ([2]; Rate 500 g/ha, Preemergence): 9; Plant response rating, Bedstraw [3, 5]: 3; Bedstraw plant response rating ([3]; Rate 62 g/ha, Postemergence): 5; Bedstraw plant response rating ([3]; Rate 125 g/ha, Postemergence): 9; Plant response rating, Bedstraw ([3]; Rate 125 g/ha, Preemergence): 6; Plant response rating, Bedstraw ([3]; Rate 250 g/ha, Postemergence): 9; Plant response rating, Bedstraw ([3]; Rate 250 g/ha, Preemergence): 6; Plant response rating, Bedstraw ([3]; Rate 500 g/ha, Preemergence): 8; Plant response rating, Morningglory [4, 5]: 6; Morningglory plant response rating ([4]; Rate 62 g/ha, Postemergence): 10; Morningglory plant response rating ([4]; Rate 125 g/ha, Postemergence): 10; Plant response rating, Morningglory ([4]; Rate 125 g/ha, Preemergence): 10; Plant response rating, Morningglory ([4]; Rate 250 g/ha, Postemergence): 10; Plant response rating, Morningglory ([4]; Rate 250 g/ha, Preemergence): 10; Plant response rating, Morningglory ([4]; Rate 500 g/ha, Preemergence): 10 |
